The target in this assay is human Cav2.2 (Homo sapiens, UniProt Q00975). The assay is described as follows: Assessment of calcium channel activity using FLIPR (Ca2+ influx in IMR32 cells). In kind it is cell-based. The following applies: IMR32 cells endogenously expressing human Cav2.2; 60 minute pre-incubation; 2 μM nifedipine; depolarized with 80 mM KCl, 5 mM CaCl2. In outline:
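FLIPR measured Ca2+ influx triggered by 80 mM KCl depolarization together with a step to 5 mM external CaCl2. Percent inhibition relative to uninhibited activity was fitted sigmoidally for IC50.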

Molecules are shown by their SMILES.

Chain of human Cav2.2 (Q00975 whole entry): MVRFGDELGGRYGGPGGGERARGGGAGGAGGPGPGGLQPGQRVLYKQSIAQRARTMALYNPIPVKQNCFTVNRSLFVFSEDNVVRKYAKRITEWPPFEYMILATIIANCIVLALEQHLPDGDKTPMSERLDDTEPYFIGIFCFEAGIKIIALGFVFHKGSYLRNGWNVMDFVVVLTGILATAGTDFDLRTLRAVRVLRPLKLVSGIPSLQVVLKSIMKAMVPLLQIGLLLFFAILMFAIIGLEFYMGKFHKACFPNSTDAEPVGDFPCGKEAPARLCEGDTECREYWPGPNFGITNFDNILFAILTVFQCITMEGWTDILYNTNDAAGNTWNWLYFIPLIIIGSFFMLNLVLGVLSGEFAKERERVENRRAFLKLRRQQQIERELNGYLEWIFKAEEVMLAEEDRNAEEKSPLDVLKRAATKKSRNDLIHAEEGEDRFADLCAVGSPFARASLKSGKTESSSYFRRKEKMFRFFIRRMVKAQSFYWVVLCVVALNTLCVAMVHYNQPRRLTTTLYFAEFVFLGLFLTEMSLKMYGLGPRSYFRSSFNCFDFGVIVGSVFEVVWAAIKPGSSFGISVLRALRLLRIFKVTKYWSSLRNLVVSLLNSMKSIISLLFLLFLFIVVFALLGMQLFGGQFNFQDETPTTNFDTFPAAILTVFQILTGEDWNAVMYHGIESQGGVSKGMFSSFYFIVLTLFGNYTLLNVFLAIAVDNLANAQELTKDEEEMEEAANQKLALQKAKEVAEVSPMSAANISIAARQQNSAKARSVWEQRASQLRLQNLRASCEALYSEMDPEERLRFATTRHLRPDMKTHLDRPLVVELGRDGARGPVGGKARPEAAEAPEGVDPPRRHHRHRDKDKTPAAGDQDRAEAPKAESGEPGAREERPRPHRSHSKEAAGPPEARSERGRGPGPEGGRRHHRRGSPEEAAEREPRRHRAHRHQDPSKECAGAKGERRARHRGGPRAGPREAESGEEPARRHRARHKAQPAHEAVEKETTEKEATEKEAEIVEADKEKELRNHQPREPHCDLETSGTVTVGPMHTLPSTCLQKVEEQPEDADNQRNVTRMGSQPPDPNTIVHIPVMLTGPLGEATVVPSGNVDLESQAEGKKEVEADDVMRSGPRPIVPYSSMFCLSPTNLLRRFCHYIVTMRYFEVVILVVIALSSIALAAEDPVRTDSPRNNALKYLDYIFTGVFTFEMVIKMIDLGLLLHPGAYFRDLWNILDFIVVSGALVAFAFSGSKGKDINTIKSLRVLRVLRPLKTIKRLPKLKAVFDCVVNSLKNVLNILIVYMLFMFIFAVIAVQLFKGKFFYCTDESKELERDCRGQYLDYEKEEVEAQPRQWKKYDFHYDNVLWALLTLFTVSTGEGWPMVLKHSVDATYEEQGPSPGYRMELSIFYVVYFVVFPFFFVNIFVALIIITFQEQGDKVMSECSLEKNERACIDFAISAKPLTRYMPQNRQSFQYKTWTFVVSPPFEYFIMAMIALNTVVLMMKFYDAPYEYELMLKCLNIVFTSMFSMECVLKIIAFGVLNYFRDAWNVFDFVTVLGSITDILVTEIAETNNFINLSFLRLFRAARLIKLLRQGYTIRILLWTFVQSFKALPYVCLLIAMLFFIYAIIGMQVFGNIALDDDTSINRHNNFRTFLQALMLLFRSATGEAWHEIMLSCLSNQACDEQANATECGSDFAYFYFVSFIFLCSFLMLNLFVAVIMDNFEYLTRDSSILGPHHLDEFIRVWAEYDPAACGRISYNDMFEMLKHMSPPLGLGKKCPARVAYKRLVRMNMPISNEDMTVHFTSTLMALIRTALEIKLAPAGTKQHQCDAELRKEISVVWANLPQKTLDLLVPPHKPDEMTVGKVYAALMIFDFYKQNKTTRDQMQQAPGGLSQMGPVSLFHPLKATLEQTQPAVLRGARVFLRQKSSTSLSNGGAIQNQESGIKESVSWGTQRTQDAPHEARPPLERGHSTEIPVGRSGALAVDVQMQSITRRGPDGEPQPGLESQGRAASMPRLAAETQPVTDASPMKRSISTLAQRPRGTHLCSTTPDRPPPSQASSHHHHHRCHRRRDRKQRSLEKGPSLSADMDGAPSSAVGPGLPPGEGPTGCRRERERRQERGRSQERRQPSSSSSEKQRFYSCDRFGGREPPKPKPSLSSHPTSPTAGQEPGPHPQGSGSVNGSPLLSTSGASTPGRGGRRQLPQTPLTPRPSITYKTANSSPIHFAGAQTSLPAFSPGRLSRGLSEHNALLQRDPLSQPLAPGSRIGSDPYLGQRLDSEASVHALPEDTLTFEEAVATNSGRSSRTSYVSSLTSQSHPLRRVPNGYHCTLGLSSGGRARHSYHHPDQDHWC
Chain of human Cav2.2 (P54289 25-951 partner limits assumed): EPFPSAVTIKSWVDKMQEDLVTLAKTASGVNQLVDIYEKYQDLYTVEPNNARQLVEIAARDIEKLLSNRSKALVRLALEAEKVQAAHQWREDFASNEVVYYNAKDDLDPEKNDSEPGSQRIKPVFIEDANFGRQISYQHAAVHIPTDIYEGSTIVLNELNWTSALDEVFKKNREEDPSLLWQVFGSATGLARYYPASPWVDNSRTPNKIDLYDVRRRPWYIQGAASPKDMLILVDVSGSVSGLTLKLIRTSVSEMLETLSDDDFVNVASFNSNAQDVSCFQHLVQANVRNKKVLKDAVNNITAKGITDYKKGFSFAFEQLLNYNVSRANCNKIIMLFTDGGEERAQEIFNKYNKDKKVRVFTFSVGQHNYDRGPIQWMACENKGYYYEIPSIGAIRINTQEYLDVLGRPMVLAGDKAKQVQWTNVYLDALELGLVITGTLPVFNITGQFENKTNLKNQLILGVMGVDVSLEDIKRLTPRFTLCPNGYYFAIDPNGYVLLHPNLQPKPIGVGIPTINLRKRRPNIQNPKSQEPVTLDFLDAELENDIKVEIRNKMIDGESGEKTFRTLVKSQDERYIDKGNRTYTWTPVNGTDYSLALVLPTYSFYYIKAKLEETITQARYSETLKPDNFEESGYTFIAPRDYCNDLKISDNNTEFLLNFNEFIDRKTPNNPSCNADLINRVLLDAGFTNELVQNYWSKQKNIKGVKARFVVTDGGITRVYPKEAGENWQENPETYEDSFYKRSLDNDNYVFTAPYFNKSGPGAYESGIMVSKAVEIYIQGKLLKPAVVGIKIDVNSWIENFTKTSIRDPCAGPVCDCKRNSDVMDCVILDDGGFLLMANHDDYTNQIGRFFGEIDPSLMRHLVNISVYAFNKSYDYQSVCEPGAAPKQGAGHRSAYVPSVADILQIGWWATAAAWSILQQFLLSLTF
Chain of human Cav2.2 (P54289 952-1103 partner limits assumed): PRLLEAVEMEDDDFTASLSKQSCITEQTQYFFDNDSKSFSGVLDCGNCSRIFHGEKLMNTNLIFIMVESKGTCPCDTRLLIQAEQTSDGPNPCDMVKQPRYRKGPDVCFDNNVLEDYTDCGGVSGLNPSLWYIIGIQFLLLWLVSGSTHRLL
Chain of human Cav2.2 (P54284 whole entry partner): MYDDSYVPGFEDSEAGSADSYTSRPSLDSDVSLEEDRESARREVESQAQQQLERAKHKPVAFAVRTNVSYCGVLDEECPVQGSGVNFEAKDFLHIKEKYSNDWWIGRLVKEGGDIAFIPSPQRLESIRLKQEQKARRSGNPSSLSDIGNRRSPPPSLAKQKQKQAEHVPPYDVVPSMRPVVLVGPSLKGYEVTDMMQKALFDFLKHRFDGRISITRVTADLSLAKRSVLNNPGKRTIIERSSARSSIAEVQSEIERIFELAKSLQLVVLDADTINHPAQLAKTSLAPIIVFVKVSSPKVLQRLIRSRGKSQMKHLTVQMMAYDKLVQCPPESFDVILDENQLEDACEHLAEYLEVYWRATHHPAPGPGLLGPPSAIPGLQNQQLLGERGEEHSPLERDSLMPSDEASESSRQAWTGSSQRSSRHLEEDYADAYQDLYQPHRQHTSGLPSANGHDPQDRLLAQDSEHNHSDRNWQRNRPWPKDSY

With `O=C1N(CCCc2nc(-c3ccc(C(F)(F)F)cc3)no2)CCC1(c1ccccc1)c1ccccc1` [Example 155, 3,3-diphenyl-1-(3-{3-[4-(trifluoromethyl)phenyl]-1,2,4-oxadiazol-5-yl}propyl)pyrrolidin-2-one], the IC50 stood at 4.37 µM. For `COc1cccc(CCN(C)CCN2CCCC(c3ccc(F)cc3)(c3ccc(F)cc3)C2=O)c1` [Example 120, 3,3-bis(4-fluorophenyl)-1-{2-[[2-(3-methoxyphenyl)ethyl](methyl)amino]ethyl}piperidin-2-one] the value was 1.67 µM; for `O=C(CN1CCCC(c2ccccc2)C1=O)NC1(c2ccc(F)cc2)CCC1` (stereo not drawn) [Example 97, N-[1-(4-fluorophenyl)cyclobutyl]-2-(2-oxo-3-phenylpiperidin-1-yl)acetamide], 10 µM. Consider `O=C(CN1CCCC(c2ccc(F)cc2)(c2ccc(F)cc2)C1=O)N1CCN(C(c2ccccc2)c2ccccc2)CC1` [Example 90, 1-[2-(4-benzhydrylpiperazin-1-yl)-2-oxoethyl]-3,3-bis(4-fluorophenyl)piperidin-2-one], for which the IC50 was found to be 4.61 µM. As for `Cc1nc(-c2cccc(C(F)(F)F)c2)sc1CN1CCC(c2ccccc2)(c2ccccc2)C1=O` [Example 157, 1-({4-methyl-2-[3-(trifluoromethyl)phenyl]-1,3-thiazol-5-yl}methyl)-3,3-diphenylpyrrolidin-2-one], the concentration for half-maximal inhibition (IC50) was 5.21 µM. For `O=C(CN1CCC(c2ccccc2)(c2ccccc2)C1=O)N1CCN(c2ccc(Cl)cn2)CC1` [Example 53, 1-{2-[4-(5-chloropyridin-2-yl)piperazin-1-yl]-2-oxoethyl}-3,3-diphenylpyrrolidin-2-one] the value was 4.02 µM; for `O=C1N(CCCN2CCN(c3ncccn3)CC2)CCCC1(c1ccc(F)cc1)c1ccc(F)cc1` [Example 135, 3,3-bis(4-fluorophenyl)-1-[3-(4-pyrimidin-2-ylpiperazin-1-yl)propyl]piperidin-2-one], 3.01 µM. For `O=C(CN1CCC(c2ccc(F)cc2)(c2ccc(F)cc2)C1=O)N1CCc2ccccc2C1` [Example 258, 1-[2-(3,4-dihydroisoquinolin-2(1H)-yl)-2-oxoethyl]-3,3-bis(4-fluorophenyl)pyrrolidin-2-one] the value was 4.45 µM. To `O=C(CN1CCCC(c2ccccc2)(c2ccccc2)C1=O)N1CCc2ccc(C(F)(F)F)cc2C1` [Example 261, 1-{2-oxo-2-[7-(trifluoromethyl)-3,4-dihydroisoquinolin-2(1H)-yl]ethyl}-3,3-diphenylpiperidin-2-one] belongs 4.44 µM; to `O=C(CN1CCCC(c2ccccc2)C1=O)N1Cc2ccc(C(F)(F)F)cc2C1` (stereo not drawn) [Example 178, 1-{2-oxo-2-[5-(trifluoromethyl)-1,3-dihydro-2H-isoindol-2-yl]ethyl}-3-phenylpiperidin-2-one], 7.73 µM; to `O=C(CN1CCCC(c2ccccc2)(c2ccccc2)C1=O)N1CC(c2ccc(C(F)(F)F)cc2)C1` [Example 240, 1-(2-oxo-2-{3-[4-(trifluoromethyl)phenyl]azetidin-1-yl}ethyl)-3,3-diphenylpiperidin-2-one], 3.07 µM. For the compound `O=C1N(Cc2nc(-c3ccc4[nH]ncc4c3)no2)CCCC1(c1ccccc1)c1ccccc1` [Example 154, 1-{[3-(1H-indazol-5-yl)-1,2,4-oxadiazol-5-yl]methyl}-3,3-diphenylpiperidin-2-one], the IC50 was determined as 5.15 µM. Consider `O=C(CN1CCC(c2ccc(C(F)(F)F)cc2)C1=O)N1Cc2ccc(C(F)(F)F)cc2C1` (stereo not drawn) [Example 267, 1-{2-oxo-2-[5-(trifluoromethyl)-1,3-dihydro-2H-isoindol-2-yl]ethyl}-3-[4-(trifluoromethyl)phenyl]pyrrolidin-2-one], for which the IC50 worked out at 7.35 µM. To `O=C(CN1CCC(c2ccccc2)(c2ccccc2)C1=O)N1CCc2ccccc2C1` [Example 19, 1-[2-(3,4-dihydroisoquinolin-2(1H)-yl)-2-oxoethyl]-3,3-diphenylpyrrolidin-2-one] belongs 3.31 µM; to `O=C(CN1CCC(c2ccccc2)(c2ccccc2)C1=O)N1Cc2ccc(C(F)(F)F)cc2C1` [Example 20, 1-{2-oxo-2-[5-(trifluoromethyl)-1,3-dihydro-2H-isoindol-2-yl]ethyl}-3,3-diphenylpyrrolidin-2-one], 2.82 µM; to `O=C1N(Cc2nc(-c3ccc(Br)cc3)no2)CCC1(c1ccc(F)cc1)c1ccc(F)cc1` [Example 233, 1-{[3-(4-bromophenyl)-1,2,4-oxadiazol-5-yl]methyl}-3,3-bis(4-fluorophenyl)pyrrolidin-2-one], 6.29 µM. With `O=C(CN1CCC(c2ccccc2)(c2ccccc2)C1=O)NCc1ccccc1` [Example 6, N-benzyl-2-(2-oxo-3,3-diphenylpyrrolidin-1-yl)acetamide], the IC50 came to 5.74 µM.

For the compound `O=C1N(Cc2nc(-c3ccc(F)cc3)no2)CCCC1(c1ccccc1)c1ccccc1` [Example 100, 1-{[3-(4-fluorophenyl)-1,2,4-oxadiazol-5-yl]methyl}-3,3-diphenylpiperidin-2-one], the IC50 came out at 5.29 µM. To `O=C(CN1CCC(c2ccc(F)cc2)C1=O)N1CCc2ccccc2C1` (stereo not drawn) [Example 253, 1-[2-(3,4-dihydroisoquinolin-2(1H)-yl)-2-oxoethyl]-3-(4-fluorophenyl)pyrrolidin-2-one] belongs 10.6 µM; to `O=C(CN1CCCC(c2ccccc2)(c2ccccc2)C1=O)N1CCC(C(c2ccccc2)c2ccccc2)CC1` [Example 76, 1-[2-(4-benzhydrylpiperidin-1-yl)-2-oxoethyl]-3,3-diphenylpiperidin-2-one], 2.61 µM. With `Nc1ccc(-c2noc(CN3CCC(c4ccccc4)(c4ccccc4)C3=O)n2)cn1` [Example 234, 1-{[3-(6-aminopyridin-3-yl)-1,2,4-oxadiazol-5-yl]methyl}-3,3-diphenylpyrrolidin-2-one], the IC50 came out at 6.54 µM. To `O=C(CN1CCCC(c2ccccc2)(c2ccccc2)C1=O)N[C@H]1CCN(Cc2cccc(C(F)(F)F)c2)C1` [Example 185, 2-(2-oxo-3,3-diphenylpiperidin-1-yl)-N-{(3S)-1-[3-(trifluoromethyl)benzyl]pyrrolidin-3-yl}acetamide] belongs 1.15 µM; to `O=C(CN1CCC(c2ccccc2)(c2ccccc2)C1=O)NCCC(c1ccccc1)c1ccccc1` [Example 13, N-(3,3-diphenylpropyl)-2-(2-oxo-3,3-diphenylpyrrolidin-1-yl)acetamide], 0.99 µM. To `O=C(CN1CCCC(c2ccccc2)(c2ccccc2)C1=O)N1CCC(c2ccc(F)cc2)CC1` [Example 244, 1-{2-[4-(4-fluorophenyl)piperidin-1-yl]-2-oxoethyl}-3,3-diphenylpiperidin-2-one] belongs 3.69 µM.

Turning to `O=C(CN1CCC(c2ccccc2)(c2ccccc2)C1=O)N1CCN(Cc2cccc(C(F)(F)F)c2)C(=O)C1` [Example 29, 4-[(2-oxo-3,3-diphenylpyrrolidin-1-yl)acetyl]-1-[3-(trifluoromethyl)benzyl]piperazin-2-one], the IC50 came out at 1.14 µM. To `O=C1N(Cc2nc(-c3ccc(C(F)(F)F)nc3)no2)CCCC1(c1ccccc1)c1ccccc1` [Example 177, 3,3-diphenyl-1-({3-[6-(trifluoromethyl)pyridin-3-yl]-1,2,4-oxadiazol-5-yl}methyl)piperidin-2-one] belongs 3.37 µM; to `O=C1N(CCN2CCN(c3ncccn3)CC2)CCCC1(c1ccccc1)c1ccccc1` [Example 134, 3,3-diphenyl-1-[2-(4-pyrimidin-2-ylpiperazin-1-yl)ethyl]piperidin-2-one], 6.48 µM. For `O=C1CN(C(c2ccccc2)c2ccccc2)CCN1CCN1CCC(c2ccccc2)(c2ccccc2)C1=O` [Example 64, 4-benzhydryl-1-[2-(2-oxo-3,3-diphenylpyrrolidin-1-yl)ethyl]piperazin-2-one] the value was 2.09 µM; for `O=C(CN1CCC(c2ccc(F)cc2)C1=O)N1CCc2ccc(F)cc2C1` (stereo not drawn) [Example 255, 1-[2-(7-fluoro-3,4-dihydroisoquinolin-2(1H)-yl)-2-oxoethyl]-3-(4-fluorophenyl)pyrrolidin-2-one], 9.89 µM.

Regarding `COc1ccc(C2(c3ccc(OC)cc3)CCN(CCNC(=O)c3ccccc3)C2=O)cc1` [Example 112, N-{2-[3,3-bis(4-methoxyphenyl)-2-oxopyrrolidin-1-yl]ethyl}benzamide], the IC50 was determined as 10 µM.

On to `COc1ccc(C2(c3ccc(OC)cc3)CCCN(CCN(C)CCCOc3cc(OC)cc(OC)c3)C2=O)cc1` [Example 115, 1-{2-[[3-(3,5-dimethoxyphenoxy)propyl](methyl)amino]ethyl}-3,3-bis(4-methoxyphenyl)piperidin-2-one], for which the IC50 came to 3.12 µM. For `O=C(CN1CCC(c2ccccc2)(c2ccccc2)C1=O)N1CCC(C(c2ccccc2)c2ccccc2)CC1` [Example 30, 1-[2-(4-benzhydrylpiperidin-1-yl)-2-oxoethyl]-3,3-diphenylpyrrolidin-2-one] the value was 0.65 µM; for `O=C(CN1CCCC(c2ccccc2)C1=O)N1CCN(Cc2cccc(C(F)(F)F)c2)CC1` (stereo not drawn) [Example 93, 1-(2-oxo-2-{4-[3-(trifluoromethyl)benzyl]piperazin-1-yl}ethyl)-3-phenylpiperidin-2-one], 5.9 µM; for `COc1cccc(CCN(C)CCCN2CCCC(c3ccc(F)cc3)(c3ccc(F)cc3)C2=O)c1` [Example 121, 3,3-bis(4-fluorophenyl)-1-{3-[[2-(3-methoxyphenyl)ethyl](methyl)amino]propyl}piperidin-2-one], 1.63 µM. To `CN(CCCN1CCCC(c2ccc(F)cc2)(c2ccc(F)cc2)C1=O)CCc1ccccc1` [Example 123, 3,3-bis(4-fluorophenyl)-1-{3-[methyl(2-phenylethyl)amino]propyl}piperidin-2-one] belongs 1.45 µM. As for `O=C(CN1CCCC(c2ccccc2)(c2ccccc2)C1=O)N[C@@H]1CCN(Cc2cccc(C(F)(F)F)c2)C1` [Example 186, 2-(2-oxo-3,3-diphenylpiperidin-1-yl)-N-{(3R)-1-[3-(trifluoromethyl)benzyl]pyrrolidin-3-yl}acetamide], the IC50 stood at 1.37 µM.

For orientation: IC50 means the point on the concentration scale where inhibition reaches its midpoint.

These data come from patent US8044069B2, “Compounds as calcium channel blockers” (Abbott Laboratories, priority 2008, dated 2011).
